Data: patent publication US20240252581A1, “COMPOSITIONS AND METHODS FOR TREATING RESPIRATORY DISTRESS” (S.I.S. SHULOV INNOVATIVE SCIENCE LTD., priority 2021, published 2024)
Values joined by “and” are separate entries in the source; they are usually repeats but may differ in a detail not shown here. Equal values may be shown once. Square brackets hold non-standard residues; d marks the D form. Peptide text beside a SMILES is read from it. * marks the point of attachment. pGlu = O=C1CC[C@@H](C(=O)O)N1; Octanoyl = CCCCCCCC(=O)*

System: inflammatory cytokines in BALF
Assay: LPS-induced acute lung injury / ARDS mouse model: BALF cytokine concentrations (multiplex ELISA)
Format: in vivo, BALB/c mice
Conditions: BALF
Method: In order to test the efficacy of ZEP3 sodium on lung inflammation, the lipopolysaccharide (LPS)-induced acute lung injury model was used. In particular, LPS was administered intratracheally at doses of 10 or 40 mg/kg body weight (BW) corresponding to 0.2 or 0.8 mg/mouse, respectively.
ZEP3 sodium was administered by inhalation (INH) at doses of 25 or 250 mg/kg BW (0.5 or 5 mg/mouse, respectively), or intratracheally (IT) at doses of 5 or 20 mg/kg BW (0.1 or 0.4 mg/mouse, respectively) 6 hours after LPS administration and its effect was measured 72 hours following administration in the branchial alveolar fluid (BALF) using FACS instrumentation.
To detect cytokine release in lungs fluid, cytokine concentrations were assessed in BALF samples using high sensitivity multiplex ELISA assays for: IFN-γ, IL-1α, IL-5, IL-6, IL-10, IL-12 (p70), IL-17A, KC, MCP-1, TNF-α, IP-10, RANTES, G-CSF, MIP-1α and RANTES. ZEP3Na administered intratracheally at 0.1 and 0.4 mg per mouse after instillation of 0.2 mg LPS inhibited the concentration of following interleukins: IL-1α, IL-6, IL-10, IL-12, IL-17, KC, MCP-1, TNF-α and G-CSF.

[1] = Group 2: ZEP3Na 0.1 mg IT, no LPS, group mean
[2] = Group 2: ZEP3Na 0.1 mg IT, no LPS, individual mice
[3] = Group 3: ZEP3Na 0.4 mg IT, no LPS, group mean
[4] = Group 3: ZEP3Na 0.4 mg IT, no LPS, individual mice
[5] = Group 4: LPS 0.8 mg + ZEP3Na 0.1 mg IT, group mean
[6] = Group 4: LPS 0.8 mg + ZEP3Na 0.1 mg IT, individual mice
[7] = Group 5: LPS 0.8 mg + ZEP3Na 0.4 mg IT, group mean
[8] = Group 5: LPS 0.8 mg + ZEP3Na 0.4 mg IT, individual mice
[9] = Group 8: LPS 0.2 mg + ZEP3Na 0.1 mg IT, group mean
[10] = Group 8: LPS 0.2 mg + ZEP3Na 0.1 mg IT, individual mice
[11] = Group 9: LPS 0.2 mg + ZEP3Na 0.4 mg IT, group mean

CCCCCCCC(=O)NCCCC[C@H](NC(=O)[C@H](Cc1c[nH]c2ccccc12)NC(=O)[C@H](CC(N)=O)NC(=O)[C@@H]1CCC(=O)N1)C(=O)O [ZEP3Na, pGlu-Asn-Trp-Lys(Octanoyl)-ONa] ([pGlu]NWK(Octanoyl)-OH)
production of IL-12 and TNF-α (0.8 mg LPS treated mice, 0.1 and 0.4 mg): significantly inhibited
G-CSF [1]: 2.60 pg/mL
IL-12 (p70) [1]: 7.31 pg/mL
IL-17A [1]: 0.35 pg/mL
KC [1]: 59.28 pg/mL
MCP-1 [1]: 0.00 pg/mL
G-CSF [2]: 2.37 pg/ml (2×) and 1.99 pg/ml (2×) and 5.06 pg/ml and 2.76 pg/ml (2×) and 3.53 pg/ml and 3.15 pg/ml
G-CSF (pg/ml) [2]: undetected
IL-12 (p70) [2]: 9.22 pg/ml (2×) and 9.10 pg/ml and 8.79 pg/ml (2×) and 7.39 pg/ml and 5.38 pg/ml and 4.32 pg/ml and 10.92 pg/ml
IL-12 (p70) (pg/ml) [2]: undetected
IL-17A [2]: 0.63 pg/mL and 2.12 pg/mL and 0.73 pg/mL
IL-17A (pg/ml) [2]: undetected
KC [2]: 46.08 pg/mL and 58.58 pg/mL and 58.91 pg/mL and 89.58 pg/mL and 95.87 pg/mL and 47.76 pg/mL and 43.47 pg/mL and 64.27 pg/mL and 42.44 pg/mL and 45.89 pg/mL
MCP-1 (pg/ml) [2]: undetected
G-CSF [3]: 3.26 pg/mL
IL-12 (p70) [3]: 7.54 pg/mL
IL-17A [3]: 1.26 pg/mL
KC [3]: 70.95 pg/mL
MCP-1 [3]: 4.89 pg/mL
G-CSF [4]: 7.65 pg/ml and 3.47 pg/ml (2×) and 2.20 pg/ml (2×) and 6.40 pg/ml and 3.89 pg/ml
G-CSF (pg/ml) [4]: undetected
IL-12 (p70) [4]: 8.49 pg/ml (2×) and 7.27 pg/ml and 7.92 pg/ml and 5.27 pg/ml and 9.45 pg/ml and 7.21 pg/ml and 5.22 pg/ml and 8.54 pg/ml
IL-17A [4]: 2.02 pg/ml and 1.13 pg/ml and 1.36 pg/ml and 1.47 pg/ml and 1.20 pg/ml (2×) and 1.06 pg/ml and 0.73 pg/ml and 1.14 pg/ml
KC [4]: 56.01 pg/mL and 58.30 pg/mL and 63.33 pg/mL and 62.30 pg/mL and 71.12 pg/mL and 68.10 pg/mL and 52.39 pg/mL and 46.36 pg/mL and 160.65 pg/mL
MCP-1 [4]: 11.53 pg/ml and 11.29 pg/ml (2×) and 9.93 pg/ml
MCP-1 (pg/ml) [4]: undetected
G-CSF [5]: 138.16 pg/mL
IL-12 (p70) [5]: 124.09 pg/mL
IL-17A [5]: 837.99 pg/mL
KC [5]: 466.06 pg/mL
MCP-1 [5]: 70.18 pg/mL
G-CSF [6]: 250.42 pg/mL and 141.30 pg/mL and 164.43 pg/mL and 89.05 pg/mL and 416.35 pg/mL and 50.11 pg/mL and 131.80 pg/mL
G-CSF (pg/ml) [6]: undetected
IL-12 (p70) [6]: 6.33 pg/mL and 5.38 pg/mL and 235.43 pg/mL and 103.27 pg/mL and 192.86 pg/mL and 41.94 pg/mL and 414.83 pg/mL and 27.99 pg/mL and 88.80 pg/mL
IL-17A [6]: 1287.47 pg/mL and 55.37 pg/mL and 719.90 pg/mL and 51.28 pg/mL and 5285.06 pg/mL and 77.04 pg/mL and 65.83 pg/mL
IL-17A (pg/ml) [6]: undetected
KC [6]: 39.18 pg/mL and 29.08 pg/mL and 847.35 pg/mL and 522.41 pg/mL and 798.01 pg/mL and 253.77 pg/mL and 831.88 pg/mL and 234.34 pg/mL and 638.49 pg/mL
MCP-1 [6]: 70.21 pg/mL and 76.09 pg/mL and 93.90 pg/mL and 58.01 pg/mL and 114.01 pg/mL and 53.91 pg/mL and 165.51 pg/mL
MCP-1 (pg/ml) [6]: undetected
G-CSF [7]: 190.32 pg/mL
IL-12 (p70) [7]: 102.59 pg/mL
IL-17A [7]: 204.85 pg/mL
KC [7]: 773.23 pg/mL
MCP-1 [7]: 190.69 pg/mL
G-CSF [8]: 491.06 pg/mL and 209.62 pg/mL and 268.52 pg/mL and 300.90 pg/mL and 7.65 pg/mL and 3.47 pg/mL and 124.37 pg/mL and 116.99 pg/mL
IL-12 (p70) [8]: 7.58 pg/mL and 215.64 pg/mL and 368.44 pg/mL and 12.63 pg/mL and 7.60 pg/mL and 194.02 pg/mL and 14.83 pg/mL
IL-12 (p70) (pg/ml) [8]: undetected
IL-17A [8]: 7.23 pg/mL and 265.69 pg/mL and 1207.05 pg/mL and 13.05 pg/mL and 2.04 pg/mL and 0.52 pg/mL and 136.95 pg/mL and 6.24 pg/mL
KC [8]: 1115.74 pg/mL and 1099.42 pg/mL and 1195.30 pg/mL and 488.61 pg/mL and 54.20 pg/mL and 57.06 pg/mL and 981.92 pg/mL and 1193.59 pg/mL
MCP-1 [8]: 810.24 pg/mL and 166.84 pg/mL and 79.29 pg/mL and 307.60 pg/mL and 15.45 pg/mL and 83.52 pg/mL and 62.54 pg/mL
MCP-1 (pg/ml) [8]: undetected
G-CSF [9]: 187.95 pg/mL
IL-12 (p70) [9]: 264.97 pg/mL
IL-17A [9]: 724.27 pg/mL
KC [9]: 1023.71 pg/mL
MCP-1 [9]: 133.24 pg/mL
G-CSF [10]: 175.22 pg/mL and 144.90 pg/mL and 109.99 pg/mL and 383.77 pg/mL and 239.49 pg/mL and 199.64 pg/mL and 249.05 pg/mL and 93.60 pg/mL and 177.33 pg/mL and 106.48 pg/mL
IL-12 (p70) [10]: 247.16 pg/mL and 386.37 pg/mL and 66.34 pg/mL and 199.27 pg/mL and 322.18 pg/mL and 422.04 pg/mL and 317.94 pg/mL and 97.45 pg/mL and 202.28 pg/mL and 388.69 pg/mL
IL-17A [10]: 553.70 pg/mL and 1615.14 pg/mL and 285.28 pg/mL and 1776.16 pg/mL and 862.84 pg/mL and 989.92 pg/mL and 458.49 pg/mL and 111.01 pg/mL and 281.41 pg/mL and 308.73 pg/mL
KC [10]: 782.52 pg/mL and 1528.47 pg/mL and 503.00 pg/mL and 672.71 pg/mL and 1548.79 pg/mL and 1057.28 pg/mL and 1346.32 pg/mL and 808.21 pg/mL and 1086.03 pg/mL and 903.77 pg/mL
MCP-1 [10]: 107.46 pg/mL and 158.19 pg/mL and 142.05 pg/mL and 85.01 pg/mL and 91.65 pg/mL and 135.00 pg/mL and 216.90 pg/mL and 114.81 pg/mL and 109.95 pg/mL and 171.38 pg/mL
G-CSF [11]: 172.12 pg/mL
IL-12 (p70) [11]: 161.01 pg/mL
IL-17A [11]: 584.07 pg/mL
